ChEMBL document CHEMBL1921784, “Benzobistriazinones and related heterocyclic ring systems as potent, orally bioavailable positive allosteric AMPA receptor modulators” (Bioorg Med Chem Lett, 2011)
Activity calls are given as the source filed them. The rule behind the calls is not given here.

Columns and labels:
Rattus norvegicus [1] = organism: Rattus norvegicus; test: Positive allosteric modulation of AMPA receptor in Sprague-Dawley rat embryonic hippocampal neuron assessed as concentration required to double the steady-state glutamate-induced current by patch-clamp assay; conditions: Hippocampus
Rattus norvegicus [2] = test: Positive allosteric modulation of AMPA receptor in Sprague-Dawley rat adult hippocampus dentate gyrus assessed as increase in field excitatory postsynaptic potential amplitude at 5 mg/kg, ip infused for 30 mins relative to baseline; format: functional
[3] = Half life in dog; format: ADME, organism-based, Canis lupus familiaris; conditions: in vivo
[4] = Half life in rat; format: ADME, organism-based; conditions: in vivo
[5] = Oral bioavailability in rat; format: ADME, organism-based; conditions: in vivo
Rattus norvegicus [6] = test: Positive allosteric modulation of AMPA receptor in Sprague-Dawley rat adult hippocampus dentate gyrus assessed as increase in field excitatory postsynaptic potential amplitude at 1 mg/kg, ip infused for 30 mins relative to baseline; format: functional; conditions: route intraperitoneal
[7] = Half life in cynomolgus monkey; format: ADME, organism-based, Macaca fascicularis; conditions: in vivo
[8] = Oral bioavailability in cynomolgus monkey; format: ADME, organism-based, Macaca fascicularis; conditions: in vivo
Rattus norvegicus [9] = test: Positive allosteric modulation of AMPA receptor in Sprague-Dawley rat adult hippocampus dentate gyrus assessed as increase in field excitatory postsynaptic potential amplitude at 10 mg/kg, ip infused for 30 mins relative to baseline; format: functional; conditions: route intraperitoneal
Rattus norvegicus [10] = test: Positive allosteric modulation of AMPA receptor in Sprague-Dawley rat adult hippocampus dentate gyrus assessed as increase in field excitatory postsynaptic potential amplitude at 3 mg/kg, ip infused for 30 mins relative to baseline; format: functional; conditions: route intraperitoneal
Rattus norvegicus [11] = test: Positive allosteric modulation of AMPA receptor in Sprague-Dawley rat adult hippocampus dentate gyrus assessed as increase in field excitatory postsynaptic potential amplitude at 20 mg/kg, ip infused for 30 mins relative to baseline; format: functional; conditions: route intraperitoneal

| Structure (SMILES) | CD (Rattus norvegicus [1]) | Activity (Rattus norvegicus [2]; route intraperitoneal) | other results |
| --- | --- | --- | --- |
| C[C@H](Cn1ncnn1)n1cnc2cc3c(=O)n([C@H](C)Cn4cnnn4)nnc3cc2c1=O | 0.02 µM | 1% | – |
| C[C@H](Cn1nccn1)n1nnc2cc3c(=O)n(C)nnc3cc2c1=O | 2.1 µM | 7% | – |
| C#CCn1nnc2cc3c(=O)n([C@H](C)Cn4ncnn4)cnc3cc2c1=O | 0.5 µM | 11% | – |
| C[C@H](Cn1ccnn1)n1nnc2cc3c(=O)n(C)nnc3cc2c1=O | 0.09 µM | 7% | – |
| C[C@H](Cn1ncnn1)n1cnc2cc3c(=O)n(C4CC4)nnc3cc2c1=O | 0.6 µM | 33% | half-life [3]: 4.8 h; half-life [4]: 1.6 h; bioavailability [5]: 100% |
| C[C@H](Cn1cnnn1)n1cnc2cc3c(=O)n(C4CC4)nnc3cc2c1=O | 0.07 µM | 2% | – |
| C[C@H](Cn1ncnn1)n1cnc2cc3c(=O)n([C@H](C)Cn4ncnn4)nnc3cc2c1=O | 0.008 µM | – | Activity (Rattus norvegicus [6]): 43% |
| C[C@H](Cn1ncnn1)n1nnc2cc3c(=O)n(C)nnc3cc2c1=O | 0.28 µM | 46% | – |
| C[C@H](Cn1ncnn1)n1nnc2cc3c(=O)n(C4CC4)cnc3cc2c1=O | 1 µM | 16% | – |
| C[C@H](Cn1ncnn1)n1nnc2cc3c(=O)n(C4CC4)nnc3cc2c1=O | 0.28 µM | 37% | half-life [7]: 9.5 h; half-life [3]: 3 h; half-life [4]: 1.7 h; bioavailability [5]: 100%; bioavailability [8]: 100% |
| COCCn1nnc2cc3c(=O)n([C@H](C)Cn4ncnn4)nnc3cc2c1=O | – | 34% | – |
| C[C@H](Cn1ncnn1)n1cnc2cc3c(=O)n([C@H](C)Cn4ncnn4)cnc3cc2c1=O | 0.03 µM | 0% | – |
| C[C@H](Cn1ccnn1)n1nnc2cc3c(=O)n(C4CC4)nnc3cc2c1=O | 0.37 µM | – | Activity (Rattus norvegicus [9]): 24% |
| C[C@H](Cn1cccn1)n1cnc2cc3c(=O)n([C@H](C)Cn4cccn4)cnc3cc2c1=O | 0.09 µM | 2% | – |
| C#CCn1nnc2cc3c(=O)n([C@H](C)Cn4ncnn4)nnc3cc2c1=O | 0.57 µM | 20% | – |
| O=c1c2cc3nnn(C4CC4)c(=O)c3cc2ncn1CCn1ncnn1 | – | 7% | – |
| C[C@H](Cn1ncnn1)n1nnc2cc3c(cc2c1=O)OCN(C1CC1)C3=O | – | – | half-life [4]: 0.27 h |
| C[C@H](Cn1ncc(C#N)n1)n1nnc2cc3c(=O)n(C4CC4)nnc3cc2c1=O | – | 17% | – |
| CC#CCn1nnc2cc3c(=O)n([C@H](C)Cn4ncnn4)nnc3cc2c1=O | – | 43% | – |
| C=CCn1nnc2cc3c(=O)n([C@H](C)Cn4ncnn4)nnc3cc2c1=O | – | 12% | – |
| CCn1nnc2cc3c(=O)n([C@H](C)Cn4ncnn4)nnc3cc2c1=O | 0.3 µM | 34% | – |
| C[C@H](Cn1ncnn1)n1cnc2cc3c(=O)n(C4CC4)cnc3cc2c1=O | 1.4 µM | 2% | – |
| C#C[C@H](Cc1cccc(F)c1)n1nnc2cc3c(=O)n(C4CC4)nnc3cc2c1=O | 0.45 µM | 1% | – |
| C[C@H](Cn1ccnn1)n1nnc2cc3c(=O)n([C@H](C)Cn4ccnn4)nnc3cc2c1=O | 0.06 µM | – | Activity (Rattus norvegicus [10]): 0% |

| Structure (SMILES) | CD (Rattus norvegicus [1]) | Activity (Rattus norvegicus [2]; route intraperitoneal) | other results |
| --- | --- | --- | --- |
| C[C@H](Cn1cncn1)n1nnc2cc3c(=O)n(C4CC4)nnc3cc2c1=O | 1.1 µM | 7% | – |
| C[C@H](Cn1nccn1)n1nnc2cc3c(=O)n(C4CC4)nnc3cc2c1=O | 1.3 µM | – | Activity (Rattus norvegicus [9]): 12% |
| C[C@H](Cn1nccn1)n1nnc2cc3c(=O)n([C@H](C)Cn4nccn4)nnc3cc2c1=O | 0.4 µM | 9% | – |
| C[C@H](Cn1cc(C#N)cn1)n1cnc2cc3c(=O)n(C4CC4)nnc3cc2c1=O | – | 2% | – |
| C[C@H](Cn1cnnn1)n1nnc2cc3c(=O)n(C4CC4)nnc3cc2c1=O | 0.07 µM | 11% | – |
| C[C@H](Cn1ccnn1)n1cnc2cc3c(=O)n(C)nnc3cc2c1=O | – | – | Activity (Rattus norvegicus [11]): 5% |
| C#CCn1nnc2cc3c(=O)n([C@H](C)Cn4cnnn4)cnc3cc2c1=O | 0.25 µM | 1% | – |
| C[C@H](Cn1ncnn1)n1cnc2cc3c(=O)n(CC(F)F)nnc3cc2c1=O | – | – | Activity (Rattus norvegicus [11]): 16% |
| Cc1nnnn1C[C@@H](C)n1nnc2cc3c(=O)n(C4CC4)nnc3cc2c1=O | 0.25 µM | 8% | – |
| C[C@H](Cn1nccn1)n1cnc2cc3c(=O)n(C)nnc3cc2c1=O | – | – | Activity (Rattus norvegicus [11]): 30% |
| C[C@H](Cn1ncnn1)n1cnc2cc3c(=O)n(CC(F)(F)F)nnc3cc2c1=O | – | – | Activity (Rattus norvegicus [9]): 7% |
| C[C@H](Cn1ncnn1)n1cnc2cc3c(=O)n(C)nnc3cc2c1=O | – | 63% | – |
| C[C@H](Cn1nccn1)n1cnc2cc3c(=O)n(C4CC4)nnc3cc2c1=O | – | – | Activity (Rattus norvegicus [9]): 9% |
| C[C@H](Cn1cnnn1)n1nnc2cc3c(=O)n(C)nnc3cc2c1=O | 0.08 µM | 19% | – |
| C[C@H](Cn1ncnn1)n1cnc2cc3c(=O)n(CCF)nnc3cc2c1=O | – | – | Activity (Rattus norvegicus [9]): 32% |
| CC(C)n1nnc2cc3c(=O)n([C@H](C)Cn4ncnn4)nnc3cc2c1=O | 0.44 µM | 26% | – |
| O=c1c2cc3nnn(C4CC4)c(=O)c3cc2nnn1CCn1ncnn1 | – | 1% | – |
| C[C@H](Cn1nccn1)n1nnc2cc3c(=O)n([C@H](C)Cn4ncnn4)nnc3cc2c1=O | 0.07 µM | – | Activity (Rattus norvegicus [10]): 26% |
| C#C[C@H](Cn1ncnn1)n1nnc2cc3c(=O)n(C4CC4)nnc3cc2c1=O | – | 4% | – |
| C[C@H](CNS(C)(=O)=O)n1nnc2cc3c(=O)n(C4CC4)nnc3cc2c1=O | 0.7 µM | – | Activity (Rattus norvegicus [2]): inactive |
| Cc1nnn(C[C@@H](C)n2nnc3cc4c(=O)n(C5CC5)nnc4cc3c2=O)n1 | 3.1 µM | 7% | – |
| C[C@H](Cn1ncc(C#N)n1)n1cnc2cc3c(=O)n(C4CC4)nnc3cc2c1=O | – | – | Activity (Rattus norvegicus [9]): 3% |
| C[C@H](Cn1ncnn1)n1nnc2cc3c(=O)n([C@H](C)Cn4ncnn4)nnc3cc2c1=O | 0.016 µM | – | Activity (Rattus norvegicus [6]): 59% |
| C[C@H](Cn1cccn1)n1cnc2cc3c(=O)n(C4CC4)nnc3cc2c1=O | – | – | Activity (Rattus norvegicus [9]): 20% |
